# Assay results: US20120270928A1, “MICRORNA COMPOUNDS AND METHODS FOR MODULATING MIR-21 ACTIVITY” (REGULUS THERAPEUTICS INC., priority 2011, published 2012)
# Several values for one entry are separate records, joined by “and”; a condition that tells them apart may be missing. Identical values can stand only once.
# System: UUO model of kidney fibrosis
# Assay: UUO model: collagen area fraction of kidney tissue (picrosirius red histology)
# Format: in vivo, mice
# Conditions: Table N, 25070 20 mg/kg s.c.
# Method: Control treatment groups included UUO only (sham) and UUO with PBS administered subcutaneously. An additional control group included UUO with Tween-MC/20 carrier perorally. 25070 administered subcutaneously at dose of 20 mg/kg at 5 days prior to, 2 days prior to, and 3 days after, the UUO procedure. Irbesartan was administered perorally on daily on days 0 through 7 following the UUO procedure. Animals were sacrificed on Day 10 following the UUO procedure. Kidney tissue was collected for measurement of collagen 1A1 and collagen 3A1 expression.
# The ‘collagen area fraction’ is measured histologically through quantitative image processing of the area of kidney tissue that is stained red by the picrosirius red stain; the percent detected as red is normalized by the area of kidney section.
sequence,measurement,setting,value
"AECSATCSAGTCSTGAUSAAGCSTAE (ACATCAGTCTGATAAGCTA; modified nucleosides, phosphorothioate linkages, chemistry not fully specified) [Compound 25070]",Collagen Area Fraction (%) Mean,"group mean, irbesartan PO, Day 10, UUO-PBS 11.1, Tween/MC vehicle 8.0",8.0%
same,Collagen Area Fraction (%),"individual animals, irbesartan PO daily days 0-7, Day 10, picrosirius red, 20 mg/kg",7.632% and 9.937% and 8.015% and 6.611% and 6.319% and 11.272% and 6.803% and 7.405%
